Starred links: 1 amine or outer side, 2 acyl side, 3 side chain; linkers in the order of their positions; H or OH if unused. Positions of bridges follow the written chain, without caps; N, C: chain ends. Non-standard residues stand in square brackets, D forms with d. Residues, ends and D or L forms follow the SMILES beside them. Groups on a side chain read outwards from the residue. *: point of attachment. Ala(1-CH2CO2H-4-piperidyl) = N[C@@H](CC1CCN(CC(=O)O)CC1)C(=O)O; Ala(piperidin-4-yl) = O=C([C@H](CC1CCN([*:3])CC1)N[*:1])[*:2]; DOTA = O=C(O)CN1CCN(CC(=O)O)CCN(CC(=O)*)CCN(CC(=O)O)CC1; Phe(4-NHCONH2) = NC(=O)Nc1ccc(C[C@H](N)C(=O)O)cc1; Trp(5-F) = N[C@@H](Cc1c[nH]c2ccc(F)cc12)C(=O)O; X1 = C[C@@H](c1ccccc1)[C@H](N[*:1])C(=O)[*:2]; Ala(4-THP) = N[C@@H](CC1CCOCC1)C(=O)O; Pip(CH2CO2H)Ala = not defined here; Val(3-OH) = CC(C)(O)[C@H](N)C(=O)O; hCha = N[C@@H](CCC1CCCCC1)C(=O)O; Aad = N[C@@H](CCCC(=O)O)C(=O)O; PEG4 = NCCOCCOCCOCCOCCC(=O)O; Tle = CC(C)(C)[C@H](N)C(=O)O; hLeu = CC(C)CC[C@H](N)C(=O)O; Sar = CNCC(=O)O
B1: Cpd 318 (peptide)
peptide: Ac-[hLeu]YCIG[Pip(CH2CO2H)Ala][Ala(4-THP)]DVYC[Trp(5-F)]F[Val(3-OH)][dK](DOTA)-OH
modifications: disulfide 3-11 (inferred); reading uncertain; also: printed as Ac-hLeu-Y-C-Ile-G-[Pip(CH2CO2H)Ala]-ThpA-D-V-Y-C-5FW-F-hydroxyVal-dLys(DOTA)-COOH; disulfide

Experiments:
Calu-6 cell line [1] = test: Cell associated (bound) fraction of [177Lu]Lu-labeled peptide in Calu-6 cells; type: cell-based, Human; conditions: 1 hour, 37° C.
How it was run: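 Detached B7-H3-expressing human lung cancer cells at 5 million/mL were exposed for 1 hour at 37 °C to 0.8 μCi of the 177Lu-labelled peptide, which was formulated in 1% PBSA after labelling at 80 °C, pH ~5. Supernatant and two cold washes counted as unbound, and resuspended cells gamma-counted as the cell-associated fraction.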

Calu-6 cell line [2] = test: Net internalization of [177Lu]Lu-labeled peptide in Calu-6 cells; type: cell-based, Human; conditions: 1 hour, 37° C., glycine pH 2.5 acid wash
How it was run: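 Calu-6 cells, human non-engineered lung cancer expressing B7-H3, resuspended in 1% PBSA at 5 million cells/mL and incubated with the 177Lu-labeled conjugate (labeled at 80 °C, pH ~5, RP-HPLC checked). Gamma counting of the bound fraction, then of the pellet after two glycine pH 2.5 acid strips and NaOH lysis, gives internalized activity.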

human 4lg B7-H3 = target: T1, human 4lg B7-H3 (Homo sapiens, UniProt Q5ZPR3); test: Affinity determination by surface plasmon resonance (SPR) to 4Ig B7-H3; conditions: read-out: SPR KD—37° C.; 4Ig B7-H3; 37° C. flow cell temperature
T1 sequence (Q5ZPR3 29-534): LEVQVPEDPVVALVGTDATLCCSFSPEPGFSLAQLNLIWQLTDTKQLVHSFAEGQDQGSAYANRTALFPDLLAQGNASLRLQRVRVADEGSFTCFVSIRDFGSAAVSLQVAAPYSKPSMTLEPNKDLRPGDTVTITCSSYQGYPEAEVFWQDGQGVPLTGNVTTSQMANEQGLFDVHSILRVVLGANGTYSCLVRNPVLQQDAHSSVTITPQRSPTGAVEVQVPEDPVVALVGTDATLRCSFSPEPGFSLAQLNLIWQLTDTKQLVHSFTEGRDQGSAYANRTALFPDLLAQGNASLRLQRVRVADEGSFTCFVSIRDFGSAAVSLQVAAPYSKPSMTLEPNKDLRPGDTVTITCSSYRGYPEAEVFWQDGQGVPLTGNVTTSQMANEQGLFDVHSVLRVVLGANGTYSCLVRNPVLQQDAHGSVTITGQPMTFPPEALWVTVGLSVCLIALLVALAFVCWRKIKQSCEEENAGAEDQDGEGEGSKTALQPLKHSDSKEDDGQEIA

[3] = target: B7-H3 on Calu-6 cells (human) (UniProt Q5ZPR3); test: 177Lu-labelled peptide on Calu-6 cells, % cell associated fraction; B = 25<%<=50

Row | % cell associated fraction [3] [%] | Molecule | % cell associated fraction (Calu-6 cell line [1]) | % net internalization (Calu-6 cell line [2]) | Kd (human 4lg B7-H3) [nM]
1 |  | CC(=O)N[C@@H](CCC(C)C)C(=O)N[C@@H](Cc1ccc(O)cc1)C(=O)N[C@H]1CSSC[C@@H](C(=O)N[C@@H](Cc2c[nH]c3ccc(F)cc23)C(=O)N[C@@H](Cc2ccccc2)C(=O)N[C@H](C(=O)N[C@H](C)C(=O)O)C(C)(C)O)NC(=O)[C@H](Cc2ccc(O)cc2)NC(=O)[C@H](C(C)C)NC(=O)[C@H](CC(=O)O)NC(=O)[C@H](CC2CCN(C(=O)CCOCCOCCOCCOCCNC(=O)CN3CCN(CC(=O)O)CCN(CC(=O)O)CCN(CC(=O)O)CC3)CC2)NC(=O)[C@H](CC2CCNCC2)NC(=O)CNC(=O)[C@H](C(C)(C)C)NC1=O [compound 455, Ac-hLeu-Y-C-Tbg-G-PipAla-Pip(PEG4-DOTA)Ala-D-V-Y-C-5FW-F-hydroxyVal-dAla-COOH] (Ac-[hLeu]YC[Tle]G[Ala(piperidin-4-yl)][Ala(piperidin-4-yl)]([PEG4-DOTA])DVYC[Trp(5-F)]F[Val(3-OH)][dA]-OH; disulfide 3-11) | C (%>50) | B (25<%≤50) | < 1
2 |  | CC(=O)N[C@@H](CCC(C)C)C(=O)N[C@@H](Cc1ccc(O)cc1)C(=O)N[C@H]1CSSC[C@@H](C(=O)N[C@@H](Cc2c[nH]c3ccc(F)cc23)C(=O)N[C@@H](Cc2ccccc2)C(=O)N[C@H](C(=O)N[C@H](CCCCNC(=O)[C@H](CCCC(=O)O)NC(=O)CN2CCN(CC(=O)O)CCN(CC(=O)O)CCN(CC(=O)O)CC2)C(=O)O)C(C)(C)O)NC(=O)[C@H](Cc2ccc(O)cc2)NC(=O)[C@H](C(C)C)NC(=O)[C@H](CC(=O)O)NC(=O)[C@H](CC2CCOCC2)NC(=O)[C@H](CC2CCNCC2)NC(=O)CNC(=O)[C@H](C(C)(C)C)NC1=O [compound 464, Ac-hLeu-Y-C-Tbg-G-PipAla-ThpA-D-V-Y-C-5FW-F-hydroxyVal-dLys(hGlu-DOTA)-COOH] (Ac-[hLeu]YC[Tle]G[Ala(piperidin-4-yl)][Ala(4-THP)]DVYC[Trp(5-F)]F[Val(3-OH)][dK]([Aad-DOTA])-OH; disulfide 3-11) | C (%>50) | A (%≤25) | < 1
3 |  | CC(=O)N[C@@H](CCC(C)C)C(=O)N[C@@H](Cc1ccc(O)cc1)C(=O)N[C@H]1CSSC[C@@H](C(=O)N[C@@H](Cc2c[nH]c3ccc(F)cc23)C(=O)N[C@@H](Cc2ccccc2)C(=O)N[C@H](C(=O)N[C@H](CCCCNC(=O)CCOCCOCCOCCOCCNC(=O)CN2CCN(CC(=O)O)CCN(CC(=O)O)CCN(CC(=O)O)CC2)C(=O)O)C(C)(C)O)NC(=O)[C@H](Cc2ccc(O)cc2)NC(=O)[C@H](C(C)C)NC(=O)[C@H](CC(=O)O)NC(=O)[C@H](CC2CCOCC2)NC(=O)[C@H](CC2CCNCC2)NC(=O)CNC(=O)[C@H](C(C)(C)C)NC1=O [compound 465, Ac-hLeu-Y-C-Tbg-G-PipAla-ThpA-D-V-Y-C-5FW-F-hydroxyVal-dLys(PEG4-DOTA)-COOH] (Ac-[hLeu]YC[Tle]G[Ala(piperidin-4-yl)][Ala(4-THP)]DVYC[Trp(5-F)]F[Val(3-OH)][dK]([PEG4-DOTA])-OH; disulfide 3-11) | B (25<%≤50) | A (%≤25) | < 1
4 |  | CC(=O)N[C@@H](CCC(C)C)C(=O)N[C@@H](Cc1ccc(O)cc1)C(=O)N[C@H]1CSSC[C@@H](C(=O)N[C@@H](Cc2c[nH]c3ccc(F)cc23)C(=O)N[C@H](C(=O)N[C@H](C(=O)N[C@H](CCC(=O)O)C(N)=O)C(C)(C)O)[C@@H](C)c2ccccc2)NC(=O)[C@H](Cc2ccc(O)cc2)NC(=O)[C@H](C(C)C)NC(=O)[C@H](CC(=O)O)NC(=O)[C@H](CC2CCN(C(=O)CCOCCOCCOCCOCCNC(=O)CN3CCN(CC(=O)O)CCN(CC(=O)O)CCN(CC(=O)O)CC3)CC2)NC(=O)[C@H](CC2CCNCC2)NC(=O)CNC(=O)[C@H](C(C)(C)C)NC1=O [compound 495, Ac-hLeu-Y-C-Tbg-G-PipAla-Pip(PEG4-DOTA)Ala-D-V-Y-C-5FW-[(2S, 3S)beta-Me-Phe]-hydroxyVal-dGlu-CONH2] (Ac-[hLeu]YC[Tle]G[Ala(piperidin-4-yl)][Ala(piperidin-4-yl)]([PEG4-DOTA])DVYC[Trp(5-F)][X1][Val(3-OH)][dE]-NH2; disulfide 3-11) | C (%>50) | A (%≤25) | < 1
5 |  | CC(=O)N[C@@H](CCC(C)C)C(=O)N[C@@H](Cc1ccc(O)cc1)C(=O)N[C@H]1CSSC[C@@H](C(=O)N[C@@H](Cc2c[nH]c3ccc(F)cc23)C(=O)N[C@H](C(=O)N[C@H](C(=O)N[C@H](CCCCNC(=O)CN2CCN(CC(=O)O)CCN(CC(=O)O)CCN(CC(=O)O)CC2)C(=O)O)C(C)(C)O)[C@@H](C)c2ccccc2)NC(=O)[C@H](Cc2ccc(O)cc2)NC(=O)[C@H](C(C)C)NC(=O)[C@H](CC(=O)O)NC(=O)[C@H](CC2CCOCC2)NC(=O)[C@H](CC2CCN(CC(=O)O)CC2)NC(=O)CNC(=O)[C@H](C(C)(C)C)NC1=O [compound 497, Ac-hLeu-Y-C-Tbg-G-Pip(CH2COOH)Ala-ThpA-D-V-Y-C-5FW-[(2S, 3S)beta-Me-Phe]-hydroxyVal-dLys(DOTA)-COOH] (Ac-[hLeu]YC[Tle]G[Ala(1-CH2CO2H-4-piperidyl)][Ala(4-THP)]DVYC[Trp(5-F)][X1][Val(3-OH)][dK](DOTA)-OH; disulfide 3-11) | C (%>50) | A (%≤25) | < 1
6 |  | CC(=O)N[C@@H](CCC(C)C)C(=O)N[C@@H](Cc1ccc(O)cc1)C(=O)N[C@H]1CSSC[C@@H](C(=O)N[C@@H](Cc2c[nH]c3ccc(F)cc23)C(=O)N[C@H](C(=O)N[C@H](C(=O)N[C@H](CCCCNC(=O)CN2CCN(CC(=O)O)CCN(CC(=O)O)CCN(CC(=O)O)CC2)C(=O)O)C(C)(C)O)[C@@H](C)c2ccccc2)NC(=O)[C@H](Cc2ccc(NC(N)=O)cc2)NC(=O)[C@H](C(C)C)NC(=O)[C@H](CC(=O)O)NC(=O)[C@H](CC2CCOCC2)NC(=O)[C@H](CC2CCN(CC(=O)O)CC2)NC(=O)CNC(=O)[C@H](C(C)(C)C)NC1=O [compound 499, Ac-hLeu-Y-C-Tbg-G-Pip(CH2COOH)Ala-ThpA-D-V-Aph(Cbm)-C-5FW-[(2S, 3S)beta-Me-Phe]-hydroxyVal-dLys(DOTA)-COOH] (Ac-[hLeu]YC[Tle]G[Ala(1-CH2CO2H-4-piperidyl)][Ala(4-THP)]DV[Phe(4-NHCONH2)]C[Trp(5-F)][X1][Val(3-OH)][dK](DOTA)-OH; disulfide 3-11) | C (%>50) | A (%≤25) | < 1
7 |  | CC(=O)N[C@@H](CCC(C)C)C(=O)N[C@@H](Cc1ccc(O)cc1)C(=O)N[C@H]1CSSC[C@@H](C(=O)N[C@@H](Cc2c[nH]c3ccc(F)cc23)C(=O)N[C@H](C(=O)N[C@H](C(=O)N[C@H](CCCCNC(=O)[C@@H](CCC(=O)O)NC(=O)CN2CCN(CC(=O)O)CCN(CC(=O)O)CCN(CC(=O)O)CC2)C(=O)O)C(C)(C)O)[C@@H](C)c2ccccc2)NC(=O)[C@H](Cc2ccc(O)cc2)NC(=O)[C@H](C(C)C)NC(=O)[C@H](CC(=O)O)NC(=O)[C@H](CC2CCOCC2)NC(=O)[C@H](CC2CCNCC2)NC(=O)CNC(=O)[C@H](C(C)(C)C)NC1=O [compound 501, Ac-hLeu-Y-C-Tbg-G-PipAla-ThpA-D-V-Y-C-5FW-[(2S, 3S)beta-Me-Phe]-hydroxyVal-dLys(dGlu-DOTA)-COOH] (Ac-[hLeu]YC[Tle]G[Ala(piperidin-4-yl)][Ala(4-THP)]DVYC[Trp(5-F)][X1][Val(3-OH)][dK]([dE-DOTA])-OH; disulfide 3-11) | C (%>50) | B (25<%≤50) | < 1
8 | 25 to 50 | Ac-[hCha]YC[Tle]GK[Ala(4-THP)]DVYC[Trp(5-F)]F[Val(3-OH)][dK](DOTA)-OH (disulfide 3-11 (inferred)) [Cpd 368] |  |  | 
9 | 25 to 50 | Ac-[hLeu]YC[Tle]GK[Ala(4-THP)]DVYC[Trp(5-F)]F[Val(3-OH)][dK](DOTA)-NH2 (disulfide 3-11 (inferred)) [Cpd 366] |  |  | 
10 | 25 to 50 | B1 |  |  | 
11 | 25 to 50 | Ac-[hLeu]YC[Tle][Sar]K[Ala(4-THP)]DVYC[Trp(5-F)]F[Val(3-OH)][dK](DOTA)-OH (disulfide 3-11 (inferred)) [Cpd 348] |  |  | 

Reference: patent US20250296959A1, “B7-H3 TARGETING PEPTIDES AND CONSTRUCTS THEREOF” (Mariana Oncology Inc., priority 2024, published 2025)
